From patent publication US12411143B2, “CD146 and uses thereof as a biomarker and as a therapeutic target in the diagnosis and treatment of fibrosis” (ASSISTANCE PUBLIQUE HÔPITAUX DE MARSEILLE, priority 2018, dated 2025)

Key:
Format in all cases: cell-based, human
ECFC [1] = assay: Permeability of ECFC monolayer to dextran-FITC; settings: siRNA or plasmid transfection
Procedure: D: ECFC were transfected with siRNA targeting ADAM10 or Tace and with a control siRNA (C). The permeability of the ECFC monolayer grown on semi-permeable filters was determined using dextran-FITC. Results are the mean values+/−SEM of 3 experiments.
E: ECFC were transfected with plasmid vectors encoding ADAM10 (p-ADAM10) or Tace (p-Tace) and with a control plasmid vector (C). The permeability of the ECFC monolayer grown on semi-permeable filters was determined using dextran-FITC. Results are the mean values+/−SEM of 3 experiments. *: P<0.05, **: P<0.01, ***: P<0.001, experimental vs Control.
ECFC were seeded at 60,000 cells per well on membrane inserts (porosity 1 μm) of a 24-multiwell double chamber system (Multiwell Insert System, BD Biosciences, Le Pont de Claix, France) after siRNA transfection or not. Confluent endothelial monolayers were then incubated for 24 h in EGM-2 medium in the presence or absence of the different forms of sCD146. The FITC-dextran (sigma) was added at the apical surface of the cells and was allowed to migrate for 1.5 h at 37° C. Basolateral FITC-dextran was then measured using a Cytofluor Series 4000 Fluorescence (PerSeptiveBiosystems, Framingham, MA).

ECFC [2] = assay: Soluble CD146 secretion in ECFC (ELISA); settings: for reduction of sCD146 secretion by siRNA: 24 h TNF 20 ng/ml
Procedure: A: Secretion of soluble CD146 (CD146s) was determined in ECFC in response to 24 h of treatment with 20 ng/ml TNF, 20 ng/ml VEGF, 5 ng/ml TGFb, 50 ng/ml netrin, 50 ng/ml Wnt5a and 50 ng/ml Wnt3a.
B: The effect of the pan-inhibitor GM6001 was tested on CD146s secretion in ECFC cells by ELISA. Experiments were performed in control conditions and after treatment with 20 ng/ml TNF for 24 h. […] A dose-dependence of GM6001 effect was performed between 1 and 50 μM. Results are the mean values+/−SEM of 5 experiments.
C: The effect of furin convertase inhibitor (IF) was tested at 50 μMon CD146s secretion in control condition and after treatment with TNF 20 ng/ml for 24 h. Results are the mean values+/−SEM of 3 experiments.
D: Effect of TIMP-1, -2 and -3 (1 μg/ml) was tested on CD146s secretion in control condition and after treatment with 20 ng/ml TNF. Results are the mean values+/−SEM of 3 experiments. *: P<0.05, **: P<0.01, ***: P<0.001, experimental vs Control
A: ECFC were transfected with siRNA targeting the short (shCD146) or the long (IgCD146) isoforms of CD146 and with a control siRNA (C). Soluble CD146 (sCD146) secretion was determined. Results are the mean values+/−SEM of 4 different experiments.
B: ECFC were transfected with siRNA targeting MT1-MMP, MMP2, ADAM10 or Tace and with a control siRNA (C). Soluble CD146 (sCD146) secretion was determined. In one condition, cells were treated with GM6001 10 μM. Results are the mean values+/−SEM of 5 different experiments.
A: ECFC were transfected with siRNA targeting the short (shCD146) or the long (IgCD146) isoforms of CD146 and with a control siRNA (C) and soluble CD146 (sCD146) secretion was determined in basal condition and in cells treated for 24 h with TNF 20 ng/ml. Results are the mean values +/−SEM of 5 different experiments.
B: ECFC treated for 24 h with 20 ng/ml TNF were transfected with siRNA targeting Tace, ADAM10, MT1-MMP and with a control siRNA (C) and soluble CD146 (sCD146) secretion was determined. Results are the mean values +/−SEM of 3 different experiments.
Endothelial Colony Forming Cells (ECFC) were cultured in endothelial EGM-2 MV medium as previously described (Delorme B et al., 2005).
SiRNA designed to silence the different isoforms of sCD146 were generated. A control siRNA was also used in each experiment. siRNAs were introduced in endothelial cells using the Silence magmagnetofection kit as described by the manufacturer (OZ Biosciences).
Shed sCD146 was assayed using the commercial ELISA assay (CY-QUANT sCD146, Biocytex, Marseille). Plates were coated with specific mouse monoclonal anti-human CD146 F(ab′)2 fragments. 10 μL of sera was added to each well and incubated for 30 minutes at room temperature. After incubation, the plates were washed five times, followed by incubation with a specific HRP-coupled monoclonal antibody (7A4-HRP, 1 mg/ml, Biocytex, Marseille, France) at a 1:1 000 dilution in a specific diluent for 30 minutes at room temperature and then washed five times. 200 μL of tetramethylbenzidine (TMB) substrate was incubated for approximately 20 minutes at room temperature. The colorimetric reaction was then stopped by the addition of 100 μL of an acid solution. The intensity of the signal was directly related to the concentration of sCD146 initially contained in the sample. For detecting the two spliced isoforms of sCD146 (I5-13-sCD146 and I10-sCD146), the same immunoassay was used (Biocytex). The protocol was modified only for the second antibody (detection antibody) that was replaced by the anti-I5-13-sCD146 or anti-I10-sCD146 antibodies coupled to HRP.

ECFC [3] = assay: ECFC proliferation assay; settings: siRNA or plasmid transfection, in the presence of GM6001 10 μM
Procedure: A: Effect of siRNA targeting I10-sCD146 and I5-13-sCD146 on proliferation of ECFC. Experiments were performed in the presence of GM6001 10 μM. Results are mean values of 4 different experiments and representative pictures of the cells in one experiment are given.
B: Effect of over-expression of I10-sCD146 (p-I10-sCD146), I5-13-sCD146 (p-I5-13-sCD146) and shed sCD146 (p-shed sCD146) realized by plasmid transfection on proliferation of ECFC. Experiments were performed in the presence of GM6001 10 μM.
C: Effect of recombinant proteins I10-sCD146, I5-13-sCD146 and shed sCD146 50 ng/ml on the proliferation of ECFC. Experiments were performed in the presence of GM6001 10 μM. Results are mean values of 4 different experiments.
Experiments were performed as previously described (Stalin et al., 2013).

Substance | permeability of ECFC monolayer to dextran (ECFC [1]) | reduction of sCD146 secretion by siRNA (ECFC [2]) [%] | proliferation of ECFC (ECFC [3]) | effect of siRNA on sCD146 secretion (ECFC [2]; control condition)
Tace siRNA: siRNA targeting Tace; sens 5′CAGGAUUUAAAGGUUAUGGAA (antisense UUCCAUAAACCUUUAAAUCCUG; listed as RNA, chemistry not given here) | did not modify it | 25 |  | 
siRNA targeting I10-sCD146: siRNA targeting I10-sCD146; sens CCCUCCCUCUGGGUAGAGACCAGGU (antisense ACCUGGUCUCUACCCAGAGGGAGGG; chemistry not given here) |  |  | inhibited the proliferation of ECFC | 
siRNA targeting I5-13-sCD146: siRNA targeting I5-13-sCD146; sens UGGACAUCUAGACGGCUGCUCGUUU (antisense AAACGAGCAGCCGUCUAGAUGUCCA; chemistry not given here) |  |  | inhibited the proliferation of ECFC | 
ADAM10 siRNA: siRNA targeting ADAM10; sens 5′GAAUGGUAGAACAAGGUGAtt (sense GAAUGGUAGAACAAGGUGATT; antisense UCACCUUGUUCUACCAUUCCA; chemistry not given here) | decreased | 60 |  | able to inhibit sCD146 secretion
